Experiment: gradient 5% acetonitrile 3 min, to 50% in 2 min, to 85% in 15 min, held 3 min, 100 µL/min
Conditions: column: Zorbax Extend-C18 2.1 x 50 mm; eluents: water / acetonitrile, 0.1% formic acid
How it was run: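 Data were gathered over 3 months by HPLC coupled to a quadrupole time-of-flight mass spectrometer, operated in positive and negative ionization mode. Mixtures of ~100 pure standards ran on a Zorbax Extend-C18 column (2.1 × 50 mm, 1.8 μm) at 100 μL/min, with water and acetonitrile each containing 0.1% formic acid and dead and dwell volumes of 40 μL and 900 μL. Retention time was read from adduct peaks picked by computer and checked manually.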

SMILES	RP-LC retention time
Cc1ccc(S(=O)(=O)CC(=O)Nc2nc(-c3ccc(F)cc3)cs2)cc1	988 s
CCn1cc(S(=O)(=O)Nc2ccc(C)cc2)c2cccnc21	838 s
CCOc1cc(C(=O)N2CCN(c3c(C)n(C)c(=O)n(C)c3=O)CC2)cc(OCC)c1OCC	810 s
COc1nc2ccccc2nc1N1CCCC(C(=O)NCc2ccc(Cl)cc2)C1 (stereo not given)	1110 s
COc1ccc(N2CCN(c3ncccc3-c3nc(-c4ccccc4)no3)CC2)cc1	1290 s
Cc1ccc(C(=O)N2CCN(c3nc4ccccc4n(CC(C)C)c3=O)CC2)s1	1140 s
Cc1nc(C)c(-c2ccc(SCC(=O)N3CCCc4ccccc43)nn2)s1	779 s
Cc1ccc(S(=O)(=O)Nc2ccncc2)c(C)c1N(C)S(=O)(=O)c1ccc(F)cc1	625 s
COc1ccc(-c2nc(-c3ccc(-c4ccc(Cl)cc4)o3)[nH]c2-c2ccc(OC)cc2)cc1	988 s
COc1cc2c(cc1CNC(=O)COc1ccc(Cl)cc1)OCCCO2	982 s
CCC(=O)N(C)CCc1noc(-c2ccc(C(=O)NC3CCCCCC3)cc2)n1	794 s
COc1ccc(-n2ccn3cc(-c4ccc5c(c4)OCO5)nc3c2=O)cc1Cl	833 s
CC(CNC(=O)C1CCCN1S(=O)(=O)c1cc2c(cc1Cl)NC(=O)CO2)c1ccccc1 (stereo not given)	834 s
O=C(c1ccc2c(c1)nnn2Cc1ccccc1)N1CCN(c2ncccn2)CC1	766 s
Cc1cc2ccccc2n2c(SCC(=O)NCC3CCCO3)nnc12 (stereo not given)	628 s
O=C(NC1CC1)[C@@H]1C[C@H](Oc2ccccc2)CN1C(=O)c1ccc2ncccc2c1	649 s
O=C(N1CCCC1)N1CCN(c2ccccc2F)CC1	762 s
Cc1cc(NC(=O)CN2C(=O)NC(c3ccccc3Cl)C3=C2COC3=O)ccc1Br (stereo not given)	887 s
Cc1cc(NC(=O)Cn2nc(N3CCOCC3)c3ccccc3c2=O)ccc1Br	884 s
CC(=O)N1CCC(C2CCN(C(=O)C3CC=CCC3)C2)CC1 (stereo not given)	691 s
CCOc1ccccc1CNC(=O)c1c(C)sc2ccn(CC)c(=O)c12	893 s
Cc1ccccc1S(=O)(=O)N1CCC2(CC1)NCCN=C2NCc1cccc(F)c1	712 s
CCn1c(=O)c2c(cc(C)n2C)n(CC(=O)Nc2cc(Cl)ccc2C)c1=O	810 s

SMILES	RP-LC retention time
CCC(C)NC(=O)Cn1nc2c3cc(-c4ccc(F)cc4)nn3ccn2c1=O (stereo not given)	764 s
COc1ccc(Cl)cc1NC(=O)N1CCN(c2cc(C)nc(N3CCOCC3)n2)CC1	659 s
CN(CC1CCOCC1)C(=O)Nc1ccc(Cl)cc1F	726 s
CC(C)c1noc(C2CCCN(S(C)(=O)=O)CCC(=O)NCC2)n1 (stereo not given)	656 s
O=C(CCc1c[nH]c2ccccc12)N1CCn2cnnc2C1	778 s
CCC1=NS(=O)(=O)c2cccnc2N1c1ccc2c(c1)OCCO2	800 s
O=C(CCNc1c(-c2cccc(F)c2)nc2cnccn12)NCc1ccc(Cl)cc1	785 s
Fc1ccc(OCc2nc(-c3ccc4c(c3)ncn4CCN3CCCC3)no2)cc1	657 s
Cc1ccc(NC(=O)N2CCCC2c2cc(C)no2)c(Cl)c1 (stereo not given)	880 s
COc1ccccc1N1CCN(CCn2c(=O)c3c(c4ccccc4n3C)n(C)c2=O)CC1	784 s
COc1cccc(C#N)c1OCC(N)=O	592 s
CNCC[C@H](Oc1cccc2ccccc12)c1cccs1	788 s
CC1C(=O)NCCN1C(=O)c1cc(Cl)ccc1Cl (stereo not given)	612 s
O=C(Cn1ccc2ccn(Cc3ccccc3F)c2c1=O)NCc1ccc2c(c1)OCO2	894 s
O=C(c1cn2nc(Cl)ccc2n1)N(Cc1ccccc1)Cc1ccco1	974 s
CC(=O)N1c2ccc(S(=O)(=O)N3CCCC3)cc2CC1C(=O)NCCc1ccc(C)cc1 (stereo not given)	797 s
Clc1ccc(C2(c3ccc(-c4cn[nH]c4)cc3)CCNCC2)cc1	680 s
Cc1nnsc1C(=O)N1CCN(c2nc3ccc(OC(F)(F)F)cc3s2)CC1	903 s
Cc1cc(NC(=O)c2c[nH]c3ncccc23)ccc1F	739 s
CCCNc1cc(N2CCC(CCC(=O)NCc3ccccn3)CC2)ncn1	556 s
Cn1c(NC(=O)c2ccc(S(=O)(=O)N3CCOCC3)cc2)cc(=O)n(C)c1=O	612 s
O=C(c1ccc([N+](=O)[O-])cc1)N(Cc1ccccc1)Cc1ccco1	935 s
Cc1cccc(-c2cc3n(n2)CCCN(C(=O)c2n[nH]c4ccccc24)C3)c1	860 s

SMILES	RP-LC retention time
COc1ccc(-c2csc(NC(=O)CSc3nc4c(cc3C#N)CCCC4)n2)cc1	1180 s
O=C(CCC[C@@H]1[C@H]2CCCN3CCC[C@@H](CN1C(=O)C1CC1)[C@@H]23)Nc1ccccc1	609 s
COc1ccc(CNC(=O)C2CCCN(c3cnc4nccnc4c3)C2)cc1OC (stereo not given)	710 s
Cc1ccc(-c2csc3c(=O)n(CC(=O)OC(C)(C)C)cnc23)cc1	1090 s
O=C(c1ccco1)N1CCN(C(=O)C2CCN(c3nc4ccccc4[nH]c3=O)CC2)CC1	631 s
Cc1ccc2nc(-c3ccc(C)c(NC(=O)C(C)C)c3)[nH]c2c1	654 s
O=C(C1CC(=O)N(c2n[nH]c3cccc(F)c23)C1)N1CCN(c2cccc(Cl)c2)CC1 (stereo not given)	837 s
Cc1ccc(C)c(NC(=O)c2cn3c(n2)CCCC3)c1	603 s
CCOc1ccccc1NC(=O)CSc1ncc(-c2cccc(Br)c2)o1	1170 s
Cc1c(C(=O)NCc2ccc(OC(C)C)cc2)cc(-c2ccccc2)n1C	1080 s
CCN1C(=O)c2cccnc2Sc2cc(NC(=O)c3ccc(F)cc3)ccc21	832 s
CCn1c(=O)c(SCC(=O)NCC2CCN(Cc3ccc(C)cc3)C2)nc2ccccc21 (stereo not given)	668 s
Cc1ccccc1OCC(=O)N1CCC2(CC1)NC(=O)N(Cc1ccccc1Cl)C2=O	909 s
CCOC(=O)N1CCN(C(=O)CCc2cc3cc(OC)ccc3[nH]c2=O)CC1	662 s
Nc1cccc(-c2nc3ccccc3[nH]2)c1	532 s
COc1cccc2cc(C(=O)NCCC(O)C(C)(C)C)oc12 (stereo not given)	770 s
O=C1NC2(CCN(C(=O)NCCc3ccccc3)CC2)Nc2cc(Cl)ccc21	766 s
FC(F)(F)c1cccc(Nc2c(-c3ccc(Cl)cc3)nc3cnccn23)c1	1090 s
OC1(c2ccccn2)CCOC2(CCN(Cc3cccc(F)c3)CC2)C1 (stereo not given)	554 s
COCCCNC(=O)c1nc(Nc2ccc(C)cc2)c2ccccc2n1	709 s
O=C(Nc1ccccc1Cl)C(=O)c1cn(CC(=O)N2CCOCC2)c2ccccc12	1040 s
CCCN1C(=O)c2c(C(=O)NCc3ccccc3)ncn2CC1(C)C(=O)NC1CCCC1 (stereo not given)	756 s
CC(C)Cn1cc(S(=O)(=O)NCc2cccc(C(F)(F)F)c2)c2cccnc21	1070 s

SMILES	RP-LC retention time
O=C(Nc1cccc(-c2cn3cccnc3n2)c1)c1c(F)cccc1F	668 s
CC(C)c1noc(C2Cc3ccccc3N2C(=O)NC2CCCC2)n1 (stereo not given)	650 s
COc1ccc(OC)c(NC(=O)N2CCC(N3CCN(Cc4ccc(C)cc4)C(=O)C3=O)CC2)c1	758 s
O=C(CC1CCCN(c2cn[nH]c(=O)c2)C1)N1CCSCC1 (stereo not given)	617 s
CCOc1nccnc1NC1CCN(C(=O)c2ccco2)CC1	585 s
CCCN1CCN(C(=O)c2nc(N3CCCCC3)c3c(C)cc(C)nc3n2)CC1	566 s
Cc1ccc(-c2nc3cnc(Br)cn3c2Nc2ccc3c(c2)OCO3)cc1	982 s
CNC(=O)c1cc2cccc3c2n1CC(C)S3 (stereo not given)	853 s
Cc1cc(C)cc(NC(=O)C2CCCN(c3ncnc4c3nc3n4CCCCC3)C2)c1 (stereo not given)	907 s
CN1C(=O)COc2cc(-c3noc(C(=O)NCC4CCCO4)n3)ccc21 (stereo not given)	702 s
O=C(CN(C(=O)c1ccc(F)c(Cl)c1)C1CCCCC1)N1CCNCC1	659 s
Cn1nccc1C(=O)NC1CCCN(c2cc(N3CCCC3)ncn2)C1 (stereo not given)	590 s
COc1cc(-c2nc(-c3ccc4c(c3)oc(=O)n4C)no2)cc(OC)c1OC	985 s
COCC(=O)Nc1cnc(-c2ccc(Cl)cc2)nc1	857 s
COC(=O)c1c(C)[nH]c(C(=O)N2CCCC(C(=O)N(C)Cc3ccco3)C2)c1C (stereo not given)	726 s
O=C(NCCc1ccccc1)Nc1ccc(-c2nc(-c3ccccc3)co2)cc1	1080 s
Cc1cccc(-c2noc(CN3N=NC4C(=O)N(c5cccc(Cl)c5)C(=O)C43)n2)c1 (stereo not given)	1060 s
Cc1nn(-c2ccc(F)cc2)c2nc(N3CCCC(C(=O)NCc4ccc(F)cc4)C3)sc12 (stereo not given)	1110 s
CCN1CCN(CCCNC(=O)C2CCN(c3nc4cccnc4n(CC)c3=O)CC2)CC1	580 s
CN1C(=O)c2cccnc2Sc2cc(NC(=O)C3CCOC3)ccc21 (stereo not given)	619 s
CC(C)NC(=O)N1CCC(CCOc2ccccc2F)C1 (stereo not given)	853 s
